From patent US20080261980A1, “Use of Thiazolidinone Derivatives as Antiangiogenic Agents” (Cell Therapeutics, Inc., priority 2004, published 2008)

Assays:
[1] = molecular target: T1, Biot-HIF-1α786-826/GST-p300323-423 (Homo sapiens, UniProt Q09472); test: Primary biochemical assay for inhibition of the Hif-1α/p300 interaction (DELFIA fluorescence assay); format: binding; settings: biotinylated Hif-1α 786-826 / GST-p300 323-423, mean of two independent experiments
T1 construct: the p300 region ranging from amino acids 323 to 423; Hif-1α fragment corresponding to C-terminal 786-826 amino acids; made in house; host or cells: E. coli BL21 (DE3), vector pGEX-4T-1
T1 sequence (Q09472 323-423): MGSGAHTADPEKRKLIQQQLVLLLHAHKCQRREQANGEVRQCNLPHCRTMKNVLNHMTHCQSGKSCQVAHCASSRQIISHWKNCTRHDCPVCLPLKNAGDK
Description: Primary Biochemical Assay for the Inhibition of Biot-HIF-1α^786-826/GST-p300^323/423
The compounds were evaluated for their ability to inhibit the interaction between Hif-1α and p300 using a fluorescence assay (DELFIA™). The procedure described by Freedman S J at al., Nature Structural Biology 2003, 10 (7), 504-512 was suitably modified.
The human biotinylated Hif-1α fragment corresponding to C-terminal 786-826 amino acids (Biotinylated Hif-1α^786-826) was obtained from AnaSpec Inc (San Jose, Calif., USA) and used without further purifications.
A construct expressing the GST-p300^323-423 fragment was transformed in the BL21 strain (DE3) of E. coli. Said construct was obtained by cloning in the expression vector pGEX-4T-1 (Amersham No. 27-45-80-01) the DNA sequence which encodes for the p300 region ranging from amino acids 323 to 423; the DNA sequence was obtained by PCR (Polymerase Chain Reaction). Protein expression was induced with 1 mM isopropyl-1-thio-13-D-galactopyranoside (IPTG). The bacteria were lysed by sonication in the presence of a suitable buffer (50 mM Tris.HCl pH 8.00, 100 mM NaCl, 0.1 mM ZnSO4, 1 mM DTT, 0.1 mg/ml lysozyme and a tablet of Complete EDTA-free Protease Inhibitor Cocktail Tablets (Roche, catalogue number 1 873 580)) and the GST fusion protein present in the soluble fraction was purified on a Glutathione-Sepharose 4B resin (Amersham Biosciences; no. 27-4574-01). The protein final concentration was determined according to Bradford with the Biorad assay (Bradford M., Anal. Biochem., 72, 248, (1976)) and sample purity was evaluated by SDS-PAGE. The samples were stored at −80° C. in 50% glycerol.
The assay was carried out using NUNC Maxisorp 96-well plates as follows.
C96 NUNC Maxisorp plates (from Nunc, product No. 446612) were incubated overnight with streptavidin (Sigma; product No. S 4762) at a final concentration of 1 μg/ml in PBS buffer (Phosphate Buffered Saline 10 mM sodium phosphate, 150 mM sodium chloride pH 7.4). Each well was subsequently washed with 3×300 μl of TBST buffer (50 mM Tris-HCl pH 8.0, 150 mM NaCl, 0.05% (v/v) Tween 20). Each well was then added with 100 μl of a 10 nM solution of biotinylated Hif-1α^786-826 in TBSB (50 mM Tris-HCl pH 8.0, 150 mM NaCl, 5% (w/v) BSA (Sigma, product No. A 2153)) and incubated for 1 h at 25° C. In the last row of each plate, TBSB buffer only was added. Each well was subsequently washed with 3×300 μl of TBST buffer. The thus prepared plate represented the assay plate.
Separately, a plate (daughter plate) containing in each well 10 μl of each test compound dissolved in DMSO to a concentration of 10 μM was prepared. This plate was added with 100 μl of a 111 pM solution of GST-p300^323-423 diluted in the incubation buffer (TBSB added with 0.1% (v/v) Tween 20, 0.5 mM DTT, 10 μM ZnCl2) and the whole was mixed. 100 μl of the mixture contained in the daughter plate was immediately transferred to the assay plate.
Each daughter plate was prepared with 80 different compounds at a 10 μM concentration, safe for the last two well rows, wherein each well was added with 10 μl of DMSO. These two rows represented the positive (row 11, +Hif-1) and negative (row 12, −Hif-1) controls.
After incubation for 1 h at 25° C., each well was washed with 3×300 μl of TBST buffer (50 mM Tris-HCl pH 8.0, 150 mM NaCl, 0.05% (v/v) Tween 20). Each well was then added with 60.8 ng of an europium-labelled anti-GST antibody (DELFIA Eu-N1 labeled; Perkin Elmer; product no. A D 0251) dissolved in 100 μl of TBST buffer containing 10 μM ZnCl2. After incubation for 1 h at room temperature, each well was washed with 3×300 μl of TBST buffer, then 100 μl of signal amplification solution (Enhancement Solution, Perkin Elmer product No. 1244-105) was added.
The plates were then read using a FUSION alpha-FP-HT reader (Perkin Elmer) in fluorescence mode for time resolution.
The activity of the compounds was calculated as follows. […]

[2] = test system: VEGF promoter (rat VEGF gene promoter-luciferase reporter in Hep3B cells); test: Luciferase assay in Hep3B-VEGF Luciferase cells, hypoxia induced by deferoxamine; format: cell-based, human; settings: deferoxamine about 100 μM, 18-20 hours, 50% inhibition of the luciferase signal
Description: (§1) The compounds having inhibitory activity in the Hif-1a/p300 assay described above were evaluated using a cellular test on genetically modified human hepatocarcinoma Hep3B cells (Hep3B-VEGFLuciferase) in order to stably express a vector in which the Open Reading Frame of firefly Luciferase is under the control of the rat VEGF gene promoter.
Hif-1 induction by deferoxamine (which causes hypoxia) induces luciferase transcription through activation of the VEGF promoter, which in turn increases luciferase activity, which can be measured with a commercially available kit. The compounds interfering with the Hif-1a/p300 complex inhibit Hif-dependent luciferase activation, resulting in a reduction of luciferase activity. Therefore, this assay allows to evaluate the activity of the compounds towards the VEGF promoter, which is essential to VEGF production and subsequent tumor angiogenesis.
(§2) The Hep-3B-VEGF Luciferase cell line was obtained according to the following procedure.
(§3) Human hepatocarcinoma cells Hep-3B (ATCC reference No. HB-8064) were seeded onto 6-well plates at a concentration of 2.5×10^5 cells/well in 2 ml DMEM/10% FCS and the following day were transfected using Fugene 6 (Roche Biochemicals®). In each well, the transfection mixtures contained 6 μl of the transfection reagent Fugene 6, 1 μg of the pxp2-VEGF-luciferase reporter plasmid (VEGF rat promoter, NCBI GenBank No. of accession U22373, Levy et al., J. Biol. Chem. 270 (22), 13333-13340, 1995), and 10 ng of pcDNA3.1(+)plasmid (INVITROGEN) which makes the cells resistant to neomycin. Transfection was carried out according to the manufacturer's instructions.
(§4) A suitable cell population (phenotypically resistant to neomycin) was selected by means of a cloning approach based on the “dilution limit” procedure (Sambrook J., Fritsch E. F. and Maniatis T. (1989) Molecular Cloning, A Laboratory Manual; Cold Spring Harbor Laboratories). The subsequent assays for Luciferase expression/activity (Luciferase assay) and for the quantification of secreted VEGF in the supernatant (ELISA secreted VEGF test) were carried out with the stably transfected selected cells.
(§5) The following experimental protocol was used:
(§6) Day 1. Hep-3B-VEGF Luciferase cells were seeded onto “blank” 96-wells plates (Greiner) at a density of 1×10^4 cells/well/125 μl of medium, then left to adhere overnight in thermostat (37° C./5% CO2).
(§7) Day 2. 75 μl of “3.2× working solutions” of compound (previously prepared in culture medium so that the DMSO concentration is 1.6% v/v) were added to the cells (partial volume/well=200 μl, partial concentration of compound=1.2×, partial concentration of DMSO=0.6%). After 1 hour incubation in thermostat, hypoxia was induced chemically by addition of 40 μl/well of a 6× (600 μM) stock solution of deferoxamine (final volume/well=240 μl, final concentration of compound=1×, final concentration of DMSO=0.5%, final concentration of deferoxamine=1×≈100 μM). The plates were then thermostated for further 18-20 hours.
(§8) Day 3. The Luciferase assay and the secreted VEGF ELISA test were carried out as follows.
Quantification of the expression of the Luciferase reporter gene was performed by means of the Bright Glo Reagent (Promega). After removing the supernatant and washing once with PBS, 40 μl/well of Bright Glo Reagent were added to blank 96-well plates with Hep3B/VEGF-Luciferase cells. The expression levels of the reporter gene were determined by reading the plates with a luminometer.
(§9) IC50 values (concentration of the compound that causes 50% inhibition of the luciferase signal or 50% reduction of secreted VEGF) for some compounds of the invention are reported in table 2.

[3] = test system: secreted VEGF (Hep3B/VEGF Luciferase cells); test: Secreted VEGF ELISA test in Hep3B-VEGF Luciferase cells, hypoxia induced by deferoxamine; format: cell-based; settings: Homo sapiens, deferoxamine about 100 μM, 18-20 hours, 50% reduction of secreted VEGF
Description: as §1, §2, §3, §4, §5, §6, §7, §8
Quantification of secreted VEGF was performed using the “DuoSet Elisa Development System human VEGF” kit (R&D Systems). […] of the supernatant from the “blank” 96-well plates with the cells of the Hep3B/VEGF Luciferase clone were transferred into transparent 96-well plates (Maxisorp) and assayed according to the indications of the kit manufacturer.
as §9

| IC50 [1] [µM] | IC50 [2] [µM] | IC50 [3] [µM] | SMILES |
| --- | --- | --- | --- |
| 4.9 | 3.16 | 0.87 | NS(=O)(=O)c1ccc(-c2ccc(/C=C3/SC(=S)N(Cc4ccccc4)C3=O)o2)cc1 [Compound 7, 4-[5-(3-benzyl-4-oxo-2-thioxo-thiazolidine-5-ylidenemethyl)-furan-2-yl]benzenesulfonamide] |
| 29.9 | 3.17 | 0.49 | COc1ccc(CCN2C(=O)/C(=C\c3ccc(-c4ccc(C#N)cc4)o3)SC2=S)cc1OC [Compound 18, 4-{5-[3-[2-(3,4-dimethoxyphenyl)ethyl]-4-oxo-2-thioxo-thiazolidine-5-ylidenemethyl]-furan-2-yl}benzonitrile] |
| 14.7 | 9.64 | 0.58 | COC(=O)c1ccc(-c2ccc(/C=C3/SC(=S)N(Cc4cccs4)C3=O)o2)cc1 [Compound 13, 4-{5-[3-(2-thienyl)methyl-4-oxo-2-thioxo-thiazolidine-5-ylidenemethyl]-furan-2-yl}benzoic acid methyl ester] |
| 1.4 | 7.29 | 0.33 | N#Cc1ccc(-c2ccc(/C=C3/SC(=S)N(CCc4ccccc4)C3=O)o2)cc1 [Compound 19, 4-{5-[3-(2-phenyl)ethyl-4-oxo-2-thioxo-thiazolidine-5-ylidenemethyl]-furan-2-yl}benzonitrile] |
| 8.6 | 6.66 | 0.37 | COC(=O)c1ccccc1-c1ccc(/C=C2/SC(=S)N(Cc3ccccc3)C2=O)o1 [Compound 1, 2-[5-(3-benzyl-4-oxo-2-thioxo-thiazolidine-5-ylidenemethyl)-furan-2-yl]benzoic acid methyl ester] |
| 5.9 | > 5 | 0.18 | COC(=O)c1ccc(-c2ccc(/C=C3/SC(=S)N(Cc4ccc(C)cc4)C3=O)o2)cc1 [Compound 9, 4-{5-[3-(4-methylbenzyl)-4-oxo-2-thioxo-thiazolidine-5-ylidenemethyl]-furan-2-yl}benzoic acid methyl ester] |
| 4.2 | 10.5 | 0.46 | COC(=O)c1ccc(-c2ccc(/C=C3/SC(=S)N(CCc4ccccc4)C3=O)o2)cc1 [Compound 20, 4-{5-[3-[2-(phenyl)ethyl]-4-oxo-2-thioxo-thiazolidine-5-ylidenemethyl]-furan-2-yl}benzoic acid methyl ester] |
| 7.4 | 4.86 | 0.24 | COC(=O)c1ccc(-c2ccc(/C=C3/SC(=S)N(CCc4ccc(OC)c(OC)c4)C3=O)o2)cc1 [Compound 21, 4-{5-[3-[2-(3,4-dimethoxyphenyl)ethyl]-4-oxo-2-thioxo-thiazolidine-5-ylidenemethyl]-furan-2-yl}benzoic acid methyl ester] |
| 11.1 | 2.07 | 0.7 | COC(=O)c1ccc(-c2ccc(/C=C3/SC(=S)N(CCCN4CCOCC4)C3=O)o2)cc1 [Compound 16, 4-{5-[3-(morpholine-4-yl-propyl)-4-oxo-2-thioxo-thiazolidine-5-ylidenemethyl]-furan-2-yl}benzoic acid methyl ester] |
